Values of other authors, collected in patent US20230295082A1, “MODIFIED EZETIMIBE DRUG FOR CANCER TREATMENT” (University of South Africa, priority 2020, published 2023).

What was measured:
[1] = molecular target: Mdm2 p53-binding domain (Homo sapiens, UniProt Q00987); details: applicant's previous work
[2] = test system: cancer cell lines, especially those that overexpress Mdm2

Chain of Mdm2 p53-binding domain (Q00987 26-109 limits assumed): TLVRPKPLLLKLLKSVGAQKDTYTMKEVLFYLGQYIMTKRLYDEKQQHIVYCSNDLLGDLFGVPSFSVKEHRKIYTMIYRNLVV

binding to the Mdm2 hydrophobic pocket relative to nutlins [1]: bind more strongly than nutlins
Compound: O=C1[C@H](CC[C@H](O)c2ccc(F)cc2)[C@@H](c2ccc(O)cc2)N1c1ccc(F)cc1 [ezetimibe]
toxicity to cancer cell lines [2]: toxic to cancer cell lines
